This assay relates to lashes and adjacent hairs of patients. Description: Lash and hair growth observed in glaucoma patients treated in one eye. In kind it is in vivo, human. The note with it: glaucoma patient treated in only one eye. From the text: In the course of treating patients having glaucoma, treatment may only be appropriate in one eye. […] The lash appearance on the lids of the treated eyes would have appeared quite attractive if it represented a bilateral phenomenon. As a result of its asymmetric nature, the long lashes on one side could be construed as disturbing from a cosmetic standpoint. A systemic examination was preformed as a result of the asymmetric phenomenon. It soon became apparent that this altered appearance was not an isolated finding. […] Definite differences could be identified to varying degrees in the lashes and adjacent hairs of all patients who were taking the drug on a unilateral basis for longer than 6 months.
The changes in the lashes were apparent on gross inspection in several patients once attention was focused on the issue. In those with light colored hair and lashes, the differences were only seen easily with the aid of the high magnification and lighting capabilities of the slit lamp biomicroscope. In the course of glaucoma follow-up examination, attention is generally immediately focused on the eye itself. As a result of the high power magnification needed only one eye is seen at a time and the eye is seen at a high enough power that the lashes are not in focus. […]

In the case of `CCNC(=O)CCC/C=C\C[C@@H]1[C@@H](/C=C/[C@@H](O)CCc2ccccc2)[C@H](O)C[C@@H]1O` [bimatoprost], the “lash appearance in treated eye versus non-treated eye” value was “longer, thicker, and fuller in the treated eye than in the non-treated eye”.
